Laboratory results from ChEMBL document CHEMBL5537133, “Rational design and optimization of novel 4-methyl quinazoline derivatives as PI3K/HDAC dual inhibitors with benzamide as zinc binding moiety for the treatment of acute myeloid leukemia” (Eur J Med Chem, 2024).
pIC50: −log10 of the molar value.

Columns and labels:
MV4-11 [1] = assay: Antiproliferative activity against human MV4-11 cells assessed as reduction in cell viability incubated for 72 hrs by CCK-8 assay; format: functional, cell-based; conditions: MV4-11, 72 h
Ramos = assay: Antiproliferative activity against human Ramos cells assessed as reduction in cell viability incubated for 72 hrs by CCK-8 assay
Raji = assay: Antiproliferative activity against human Raji cells assessed as reduction in cell viability incubated for 72 hrs by CCK-8 assay; format: functional, cell-based
[2] = Antiproliferative activity against human MINO cells assessed as reduction in cell viability incubated for 72 hrs by CCK-8 assay
NB-4 = assay: Antiproliferative activity against human NB4 cells assessed as reduction in cell viability incubated for 72 hrs by CCK-8 assay; format: functional, cell-based; conditions: NB-4, 72 h
L1210 = assay: Antiproliferative activity against mouse L1210 cells assessed as reduction in cell viability incubated for 72 hrs by CCK-8 assay; format: functional, cell-based; conditions: L1210, 72 h
[3] = tested on: Friend leukemia cell line; assay: Antiproliferative activity against mouse Friend leukemia cell line assessed as reduction in cell viability incubated for 72 hrs by CCK-8 assay; format: functional, cell-based
DOHH-2 = assay: Antiproliferative activity against human DOHH-2 cells assessed as reduction in cell viability incubated for 72 hrs by CCK-8 assay; format: functional, cell-based; conditions: DOHH-2, 72 h
HL-60 = assay: Antiproliferative activity against human HL-60 cells assessed as reduction in cell viability incubated for 72 hrs by CCK-8 assay; format: functional, cell-based; conditions: HL-60, 72 h
EL4 = assay: Antiproliferative activity against mouse EL4 cells assessed as reduction in cell viability incubated for 72 hrs by CCK-8 assay; format: functional, cell-based; conditions: EL4, 72 h
BaF3 = assay: Antiproliferative activity against mouse BaF3 cells assessed as reduction in cell viability incubated for 72 hrs by CCK-8 assay; format: functional, cell-based; conditions: BaF3, 72 h
Histone deacetylase 1 = Histone deacetylase 1 (Homo sapiens, UniProt Q13547)
Histone deacetylase 1, sequence (Q13547 whole entry, canonical isoform): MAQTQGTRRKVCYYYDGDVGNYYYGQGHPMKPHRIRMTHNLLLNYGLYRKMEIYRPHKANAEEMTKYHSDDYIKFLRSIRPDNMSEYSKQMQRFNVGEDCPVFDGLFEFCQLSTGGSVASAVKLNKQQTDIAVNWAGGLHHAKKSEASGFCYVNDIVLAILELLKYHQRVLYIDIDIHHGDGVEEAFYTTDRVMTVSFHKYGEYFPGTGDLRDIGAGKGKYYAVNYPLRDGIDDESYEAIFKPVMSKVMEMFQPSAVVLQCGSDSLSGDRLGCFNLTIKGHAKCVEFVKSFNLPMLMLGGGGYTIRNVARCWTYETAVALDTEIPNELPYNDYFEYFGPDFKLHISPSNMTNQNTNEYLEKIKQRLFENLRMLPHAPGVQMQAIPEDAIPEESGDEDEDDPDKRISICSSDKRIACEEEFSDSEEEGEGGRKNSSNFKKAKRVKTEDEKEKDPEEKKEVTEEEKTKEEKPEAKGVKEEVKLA
Description: Inhibition of C-terminal 6His-FLAG-tagged human recombinant HDAC1 (1 to 482 residues) expressed in Sf9 cells using Ac-peptide as substrate preincubated for 15 mins followed by substrate addition and measured after 1 hr by plate reader analysis

[4] = target: Phosphatidylinositol 4,5-bisphosphate 3-kinase catalytic subunit alpha isoform (Homo sapiens, UniProt P42336)
Phosphatidylinositol 4,5-bisphosphate 3-kinase catalytic subunit alpha isoform, sequence (P42336 whole entry, canonical isoform): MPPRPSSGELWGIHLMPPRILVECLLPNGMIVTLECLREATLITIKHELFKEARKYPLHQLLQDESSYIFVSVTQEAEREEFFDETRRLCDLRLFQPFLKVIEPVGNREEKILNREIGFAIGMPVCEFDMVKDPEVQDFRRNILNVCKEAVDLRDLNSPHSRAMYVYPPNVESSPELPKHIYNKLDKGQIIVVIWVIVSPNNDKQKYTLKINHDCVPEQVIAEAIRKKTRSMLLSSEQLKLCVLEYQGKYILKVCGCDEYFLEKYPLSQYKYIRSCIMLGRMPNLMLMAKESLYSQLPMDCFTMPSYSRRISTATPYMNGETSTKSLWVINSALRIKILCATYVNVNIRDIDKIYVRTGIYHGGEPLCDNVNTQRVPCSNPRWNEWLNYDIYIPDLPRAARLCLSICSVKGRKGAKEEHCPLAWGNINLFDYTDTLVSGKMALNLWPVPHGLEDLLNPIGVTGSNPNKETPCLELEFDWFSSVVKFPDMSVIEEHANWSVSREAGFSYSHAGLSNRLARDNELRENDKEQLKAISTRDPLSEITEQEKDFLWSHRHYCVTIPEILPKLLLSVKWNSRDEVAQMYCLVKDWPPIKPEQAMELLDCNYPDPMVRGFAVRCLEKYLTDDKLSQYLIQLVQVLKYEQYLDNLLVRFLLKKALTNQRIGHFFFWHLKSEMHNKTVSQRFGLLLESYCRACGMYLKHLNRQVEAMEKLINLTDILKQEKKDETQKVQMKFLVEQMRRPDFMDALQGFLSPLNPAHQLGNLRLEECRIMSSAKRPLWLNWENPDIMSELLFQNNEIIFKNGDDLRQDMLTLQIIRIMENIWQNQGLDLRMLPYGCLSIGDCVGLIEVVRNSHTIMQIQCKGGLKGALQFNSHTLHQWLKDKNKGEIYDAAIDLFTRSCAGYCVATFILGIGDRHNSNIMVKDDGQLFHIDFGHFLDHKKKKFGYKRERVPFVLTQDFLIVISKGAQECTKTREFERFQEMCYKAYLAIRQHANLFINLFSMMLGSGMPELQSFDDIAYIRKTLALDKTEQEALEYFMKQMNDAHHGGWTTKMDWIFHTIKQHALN
Description: Inhibition of PI3Kalpha (unknown origin) using PIP2 as substrate incubated for 1 hr in presence of ATP by ADP-Glo assay

[5] = target: Phosphatidylinositol 4,5-bisphosphate 3-kinase catalytic subunit beta isoform (Homo sapiens, UniProt P42338); assay: Inhibition of PI3Kbeta (unknown origin) using PIP2 as substrate incubated for 1 hr in presence of ATP by ADP-Glo assay
[6] = Tmax in ICR mouse at 60 mg/kg, po measured after 24 hrs by LC-MS/MS analysis; format: ADME, organism-based; conditions: in vivo
[7] = AUC(0 to infinity) in ICR mouse at 6 mg/kg, iv measured after 24 hrs by LC-MS/MS analysis; format: ADME, organism-based; conditions: in vivo
[8] = Terminal half life in ICR mouse at 60 mg/kg, po measured after 24 hrs by LC-MS/MS analysis; format: ADME, organism-based; conditions: in vivo, read-out: beta t1/2 (converted)
[9] = target: Phosphatidylinositol 4,5-bisphosphate 3-kinase catalytic subunit delta isoform (Homo sapiens, UniProt O00329); assay: Inhibition of PI3Kdelta (unknown origin) using PIP2 as substrate incubated for 1 hr in presence of ATP by ADP-Glo assay
[10] = Cmax in ICR mouse at 60 mg/kg, po measured after 24 hrs by LC-MS/MS analysis; format: ADME, organism-based; conditions: in vivo
[11] = Terminal half life in ICR mouse at 6 mg/kg, iv measured after 24 hrs by LC-MS/MS analysis; format: ADME, organism-based; conditions: in vivo
MV4-11 [12] = assay: Antitumor activity against human MV4-11 cells xenografted in BALB/c nude mouse assessed as tumor growth inhibition at 20 mg/kg, ip administered once daily for 14 days relative to control; format: functional; conditions: MV4-11, 336 h, time 14 day, read-out: TGI
[13] = Cmax in ICR mouse at 6 mg/kg, iv measured after 24 hrs by LC-MS/MS analysis; format: ADME, organism-based; conditions: in vivo
MV4-11 [14] = assay: Antitumor activity against human MV4-11 cells xenografted in BALB/c nude mouse assessed as tumor growth inhibition at 60 mg/kg, po administered once daily for 14 days relative to control; format: functional; conditions: MV4-11, 336 h, time 14 day, read-out: TGI
[15] = Toxicity in BALB/c nude mouse xenografted with human MV4-11 cells assessed as change in body weight at 10 to 20 mg/kg, ip administered only daily for 14 days and measured twice a week; format: organism-based; conditions: in vivo, 336 h, dose 10-20 mg/kg, time 14 day
[16] = AUC(0 to infinity) in ICR mouse at 60 mg/kg, po measured after 24 hrs by LC-MS/MS analysis; format: ADME, organism-based; conditions: in vivo, po, 60 mg/kg, 24 h
Histone deacetylase 2 = Histone deacetylase 2 (Homo sapiens, UniProt Q92769); assay: Inhibition of C-terminal His6-FLAG-tagged human recombinant HDAC2 (1 to 488 residues) expressed in Sf9 cells using Ac-peptide as substrate preincubated for 15 mins followed by substrate addition and measured after 1 hr by plate reader analysis
Histone deacetylase 2, sequence (Q92769 whole entry, the tested form may be a part): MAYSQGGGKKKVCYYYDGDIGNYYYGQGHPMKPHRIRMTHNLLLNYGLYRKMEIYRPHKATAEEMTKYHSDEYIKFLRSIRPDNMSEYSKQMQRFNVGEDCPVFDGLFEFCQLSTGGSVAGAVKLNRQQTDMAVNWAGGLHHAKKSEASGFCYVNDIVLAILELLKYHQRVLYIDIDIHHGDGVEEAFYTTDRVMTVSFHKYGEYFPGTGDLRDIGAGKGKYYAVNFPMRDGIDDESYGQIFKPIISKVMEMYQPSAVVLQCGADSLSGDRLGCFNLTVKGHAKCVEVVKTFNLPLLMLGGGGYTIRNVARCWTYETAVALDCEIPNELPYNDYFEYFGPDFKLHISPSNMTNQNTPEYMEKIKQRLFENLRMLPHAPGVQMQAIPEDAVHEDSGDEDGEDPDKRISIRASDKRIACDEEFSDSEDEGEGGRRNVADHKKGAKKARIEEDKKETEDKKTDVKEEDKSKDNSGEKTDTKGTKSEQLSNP

[17] = AUC(0 to t) in ICR mouse at 60 mg/kg, po measured after 24 hrs by LC-MS/MS analysis; format: ADME, organism-based; conditions: in vivo
[18] = Toxicity in BALB/c nude mouse xenografted with human MV4-11 cells assessed as change in body weight at 60 mg/kg, po administered only daily for 14 days and measured twice a week; format: organism-based; conditions: in vivo, 336 h, time 14 day
[19] = target: Protein deacetylase HDAC6 (Homo sapiens, UniProt Q9UBN7); assay: Inhibition of HDAC6 (unknown origin)
Histone deacetylase 11 = Histone deacetylase 11 (Homo sapiens, UniProt Q96DB2); assay: Inhibition of human HDAC11 (1 to 347 end residues) expressed in Sf9 cells using Ac-peptide as substrate incubated for 1 hr by plate reader analysis
Histone deacetylase 11, sequence (Q96DB2 whole entry): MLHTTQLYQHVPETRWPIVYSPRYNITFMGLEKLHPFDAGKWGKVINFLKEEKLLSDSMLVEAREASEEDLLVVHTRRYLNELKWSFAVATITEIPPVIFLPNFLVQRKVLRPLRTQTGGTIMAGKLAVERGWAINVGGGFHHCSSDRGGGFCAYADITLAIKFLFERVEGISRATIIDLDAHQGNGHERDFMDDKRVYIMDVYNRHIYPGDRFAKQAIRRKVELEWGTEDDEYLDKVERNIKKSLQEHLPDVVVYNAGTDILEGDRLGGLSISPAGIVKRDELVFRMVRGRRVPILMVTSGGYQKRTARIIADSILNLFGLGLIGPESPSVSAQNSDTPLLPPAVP

Histone deacetylase 4 = Histone deacetylase 4 (Homo sapiens, UniProt P56524); assay: Inhibition of N-terminal GST-tagged and C-terminal His-tagged human HDAC4 (627 to 1084 end residues) expressed in baculovirus infected Sf9 cells using Ac-peptide as substrate incubated for 1 hr by plate reader analysis
Histone deacetylase 4, sequence (P56524 whole entry): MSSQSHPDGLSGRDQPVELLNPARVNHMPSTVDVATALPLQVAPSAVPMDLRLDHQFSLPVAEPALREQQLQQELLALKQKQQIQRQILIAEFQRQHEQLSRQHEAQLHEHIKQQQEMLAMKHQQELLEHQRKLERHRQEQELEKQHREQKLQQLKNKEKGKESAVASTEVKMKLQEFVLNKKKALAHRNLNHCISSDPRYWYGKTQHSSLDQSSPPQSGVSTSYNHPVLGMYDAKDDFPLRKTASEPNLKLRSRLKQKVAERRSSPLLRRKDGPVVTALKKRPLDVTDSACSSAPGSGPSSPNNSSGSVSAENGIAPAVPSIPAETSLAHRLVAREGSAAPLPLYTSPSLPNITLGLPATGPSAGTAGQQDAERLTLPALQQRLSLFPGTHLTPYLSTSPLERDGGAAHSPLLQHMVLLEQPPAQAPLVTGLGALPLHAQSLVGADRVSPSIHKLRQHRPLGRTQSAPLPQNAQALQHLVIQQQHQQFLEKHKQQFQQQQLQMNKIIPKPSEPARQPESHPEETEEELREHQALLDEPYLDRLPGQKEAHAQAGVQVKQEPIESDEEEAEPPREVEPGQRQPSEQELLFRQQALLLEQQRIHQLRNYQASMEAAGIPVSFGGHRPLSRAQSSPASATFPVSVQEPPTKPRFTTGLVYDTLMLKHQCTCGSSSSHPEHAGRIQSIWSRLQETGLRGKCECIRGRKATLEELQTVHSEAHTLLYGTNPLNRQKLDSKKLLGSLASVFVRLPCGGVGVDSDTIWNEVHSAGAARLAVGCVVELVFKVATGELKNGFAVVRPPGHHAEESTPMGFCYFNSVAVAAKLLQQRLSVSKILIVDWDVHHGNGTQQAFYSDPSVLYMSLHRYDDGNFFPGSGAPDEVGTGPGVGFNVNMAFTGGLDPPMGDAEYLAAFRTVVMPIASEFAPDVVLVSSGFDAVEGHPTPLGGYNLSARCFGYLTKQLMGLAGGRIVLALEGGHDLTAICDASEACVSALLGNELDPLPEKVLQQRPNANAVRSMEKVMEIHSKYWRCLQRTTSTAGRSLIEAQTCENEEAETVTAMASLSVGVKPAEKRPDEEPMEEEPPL

[20] = AUC(0 to t) in ICR mouse at 6 mg/kg, iv measured after 24 hrs by LC-MS/MS analysis; format: ADME, organism-based; conditions: in vivo
[21] = target: Phosphatidylinositol 4,5-bisphosphate 3-kinase catalytic subunit gamma isoform (Homo sapiens, UniProt P48736); assay: Inhibition of PI3Kgamma (unknown origin) using PIP2 as substrate incubated for 1 hr in presence of ATP by ADP-Glo assay
Phosphatidylinositol 4,5-bisphosphate 3-kinase catalytic subunit gamma isoform, sequence (P48736 whole entry, canonical isoform): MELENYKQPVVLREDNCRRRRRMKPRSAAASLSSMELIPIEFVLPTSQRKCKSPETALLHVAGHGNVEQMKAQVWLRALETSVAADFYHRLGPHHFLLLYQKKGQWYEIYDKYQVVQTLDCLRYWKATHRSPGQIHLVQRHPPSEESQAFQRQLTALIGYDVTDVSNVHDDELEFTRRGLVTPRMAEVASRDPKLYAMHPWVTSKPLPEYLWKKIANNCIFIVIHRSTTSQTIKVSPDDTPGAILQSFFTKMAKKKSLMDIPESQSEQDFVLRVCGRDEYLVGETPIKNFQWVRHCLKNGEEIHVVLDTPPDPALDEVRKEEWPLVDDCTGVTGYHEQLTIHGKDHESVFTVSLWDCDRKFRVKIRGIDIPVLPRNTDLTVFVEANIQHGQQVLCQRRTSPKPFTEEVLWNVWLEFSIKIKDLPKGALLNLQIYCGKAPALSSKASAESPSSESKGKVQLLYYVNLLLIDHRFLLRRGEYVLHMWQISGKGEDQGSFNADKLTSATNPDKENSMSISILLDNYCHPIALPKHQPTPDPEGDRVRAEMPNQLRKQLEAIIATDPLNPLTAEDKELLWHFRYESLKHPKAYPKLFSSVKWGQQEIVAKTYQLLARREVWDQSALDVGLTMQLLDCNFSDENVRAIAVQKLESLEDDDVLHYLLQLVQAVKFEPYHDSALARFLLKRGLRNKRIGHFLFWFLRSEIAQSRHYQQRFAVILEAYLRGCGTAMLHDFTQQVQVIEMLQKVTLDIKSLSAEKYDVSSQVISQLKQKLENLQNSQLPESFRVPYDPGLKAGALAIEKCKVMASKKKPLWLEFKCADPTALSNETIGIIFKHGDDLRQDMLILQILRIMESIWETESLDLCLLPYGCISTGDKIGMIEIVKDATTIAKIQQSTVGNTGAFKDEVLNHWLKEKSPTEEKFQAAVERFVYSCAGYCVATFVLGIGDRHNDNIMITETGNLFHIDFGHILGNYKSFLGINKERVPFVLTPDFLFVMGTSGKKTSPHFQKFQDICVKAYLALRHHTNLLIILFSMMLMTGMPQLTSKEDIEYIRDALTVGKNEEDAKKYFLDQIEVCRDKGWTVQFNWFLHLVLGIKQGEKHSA

[22] = target: Serine/threonine-protein kinase mTOR (Homo sapiens, UniProt P42345); assay: Inhibition of N-terminal FLAG-tagged recombinant human mTOR (1362 to end residues) using ULight-4E-BP1 (Thr37/46) peptide as substrate incubated for 30 mins in presence of ATP by LANCE ultra assay
MV4-11 [23] = assay: Antitumor activity against human MV4-11 cells xenografted in BALB/c nude mouse assessed as tumor growth inhibition at 10 mg/kg, ip administered once daily for 14 days relative to control; format: functional; conditions: MV4-11, 336 h, time 14 day, read-out: TGI
Histone deacetylase 3 = Histone deacetylase 3 (Homo sapiens, UniProt O15379); assay: Inhibition of HDAC3 (unknown origin)
Histone deacetylase 3, sequence (O15379 whole entry): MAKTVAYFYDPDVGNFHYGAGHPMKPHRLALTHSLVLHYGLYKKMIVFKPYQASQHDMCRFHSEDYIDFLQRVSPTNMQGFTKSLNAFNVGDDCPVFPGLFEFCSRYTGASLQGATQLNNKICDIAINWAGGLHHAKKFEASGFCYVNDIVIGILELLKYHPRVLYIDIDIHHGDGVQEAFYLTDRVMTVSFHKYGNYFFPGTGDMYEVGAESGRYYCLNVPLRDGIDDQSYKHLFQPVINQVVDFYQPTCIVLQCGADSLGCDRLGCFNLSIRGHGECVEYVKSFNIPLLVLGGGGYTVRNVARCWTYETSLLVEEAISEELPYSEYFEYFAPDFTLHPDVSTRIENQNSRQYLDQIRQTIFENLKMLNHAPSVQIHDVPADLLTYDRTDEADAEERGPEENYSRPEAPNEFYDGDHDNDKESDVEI

Histone deacetylase 8 = Histone deacetylase 8 (Homo sapiens, UniProt Q9BY41); assay: Inhibition of C-terminal His-tagged human recombinant HDAC8 (1 to 377 end residues) expressed in Sf9 cells using Ac-peptide as substrate incubated for 1 hr by plate reader analysis

With `Nc1ccc(F)cc1NC(=O)c1ccc(CNC(=O)/C=C/c2cccnc2)cc1` as the compound, how does the pIC50 (MV4-11 [1]) read?
Its pIC50 is 6.49.

What about the pIC50 (Ramos) of the same compound?
The pIC50 was < 5.00.

And the pIC50 (Raji)?
Its pIC50 is 5.16.

And the pIC50 [2]?
Its pIC50 is 5.68.

And the pIC50 (NB-4)?
The pIC50 was 5.72.

And the pIC50 (L1210)?
The pIC50 was < 5.00.

And the pIC50 [3]?
The pIC50 was 6.30.

And the pIC50 (DOHH-2)?
The pIC50 was 5.37.

What about the pIC50 (HL-60) of the same compound?
Its pIC50 is 5.89.

And the pIC50 (EL4)?
Its pIC50 is 5.28.

What about the pIC50 (BaF3) of the same compound?
The pIC50 was 5.82.

With `COc1ncc(-c2cc(OCCCCCCC(=O)NO)c3ncnc(C)c3c2)cc1F` as the compound, how does the pIC50 (MV4-11 [1]) read?
Its pIC50 is 6.60.

With `COc1ncc(-c2cc(OCCCCCCCCCC(=O)Nc3ccccc3N)c3ncnc(C)c3c2)cc1NS(=O)(=O)c1ccc(F)cc1F` as the compound, how does the pIC50 (MV4-11 [1]) read?
Its pIC50 is 7.22.

What about the pIC50 (Histone deacetylase 1) of the same compound?
The pIC50 was 5.52.

And the pIC50 [4]?
Its pIC50 is 9.40.

With `COc1ncc(-c2cc(OCCCCCCCCC(=O)Nc3ccccc3N)c3ncnc(C)c3c2)cc1NS(=O)(=O)c1ccc(F)cc1F` as the compound, how does the pIC50 (MV4-11 [1]) read?
Its pIC50 is 8.00.

And the pIC50 (Histone deacetylase 1)?
Its pIC50 is 6.60.

And the pIC50 [4]?
The pIC50 was 9.41.

With `COc1ncc(-c2cc(OCCCCCCC(=O)Nc3ccccc3N)c3ncnc(C)c3c2)cc1NS(=O)(=O)c1ccc(F)cc1F` as the compound, how does the pIC50 (MV4-11 [1]) read?
Its pIC50 is 8.40.

And the pIC50 (Ramos)?
Its pIC50 is 5.36.

And the pIC50 (Raji)?
The pIC50 was 5.20.

And the pIC50 [5]?
Its pIC50 is 9.18.

What about the Tmax [6] of the same compound?
The Tmax was 31.2 min.

What about the AUC [7] of the same compound?
The AUC was 1605 ng·h/mL.

What about the half-life [8] of the same compound?
The half-life was 82.8 min.

And the pIC50 [9]?
The pIC50 was 8.72.

What about the Cmax [10] of the same compound?
Its Cmax is 3780 ng/mL.

And the “beta t1/2” value [11]?
Its value is 2.3 h.

And the inhibition in vivo at 20 mg/kg (MV4-11 [12])?
Its inhibition in vivo at 20 mg/kg is 75%.

And the Cmax [13]?
The Cmax was 8310 ng/mL.

What about the inhibition in vivo at 60 mg/kg (MV4-11 [14]) of the same compound?
The inhibition in vivo at 60 mg/kg was 53.6%.

And the pIC50 (Histone deacetylase 1)?
The pIC50 was 6.76.

What about the Activity [15] of the same compound?
Its Activity is “Non-Toxic”.

What about the pIC50 [2] of the same compound?
Its pIC50 is 5.27.

And the pIC50 (NB-4)?
The pIC50 was 7.40.

What about the pIC50 (L1210) of the same compound?
Its pIC50 is 6.85.

What about the AUC [16] of the same compound?
The AUC was 5042 ng·h/mL.

What about the pIC50 [3] of the same compound?
The pIC50 was 6.46.

And the pIC50 (Histone deacetylase 2)?
The pIC50 was 6.74.

What about the AUC(0-t) at 24 h [17] of the same compound?
Its AUC(0-t) at 24 h is 5020 ng·h/mL.

What about the pIC50 (DOHH-2) of the same compound?
Its pIC50 is 5.27.

What about the pIC50 (HL-60) of the same compound?
Its pIC50 is 6.68.

And the Activity [18]?
Its Activity is “Non-Toxic”.

And the pIC50 [19]?
Its pIC50 is < 5.00.

And the pIC50 (Histone deacetylase 11)?
Its pIC50 is < 5.00.

What about the pIC50 (Histone deacetylase 4) of the same compound?
Its pIC50 is < 5.00.

And the AUC(0-t) at 24 h [20]?
The AUC(0-t) at 24 h was 1580 ng·h/mL.

What about the pIC50 [21] of the same compound?
Its pIC50 is 8.74.

And the pIC50 (EL4)?
Its pIC50 is 6.25.

And the pIC50 [22]?
Its pIC50 is 8.47.

And the pIC50 [4]?
The pIC50 was 9.64.

And the pIC50 (BaF3)?
The pIC50 was 6.89.

And the inhibition in vivo at 10 mg/kg (MV4-11 [23])?
Its inhibition in vivo at 10 mg/kg is 53.6%.

And the pIC50 (Histone deacetylase 3)?
The pIC50 was 6.05.

And the pIC50 (Histone deacetylase 8)?
Its pIC50 is < 5.00.

What does the source list for `COc1ncc(-c2cc(OCCCC(=O)Nc3ccccc3N)c3ncnc(C)c3c2)cc1NS(=O)(=O)c1ccc(F)cc1F`?
pIC50 (MV4-11 [1]): 7.52; pIC50 (Histone deacetylase 1): 5.33; pIC50 [4]: 9.64

Which results are given for `COc1ncc(-c2cc(OCCCCC(=O)Nc3ccccc3N)c3ncnc(C)c3c2)cc1NS(=O)(=O)c1ccc(F)cc1F`?
pIC50 (MV4-11 [1]): 7.70; pIC50 (Histone deacetylase 1): 5.45; pIC50 [4]: 9.70
